Measured values published in ChEMBL document CHEMBL3885861, “Open TG-GATES”.

Species on record: Rattus norvegicus
Test: Open TG-GATES - Regimen: Single
Format: toxicity, organism-based, Sprague-Dawley
Set-up: regimen Single, gender Male, age 6 weeks
Conditions: in vivo, po, route gavage; for APTT / Bas / Eos / Fbg / Hb / Ht / Lym / MCH / MCHC / MCV / Mono / Neu / PT / Plat / RBC / Ret / WBC: tissue Blood; for KIDNEY_L / KIDNEY_R / KIDNEY_TOTAL: tissue Kidney; for LIVER: tissue Liver; for ALP / ALT / AST / BUN / CRE / DBIL / GLC / K / Na / PL / RALB / TBIL / TC / TG / TP / gamma-GTP: tissue Plasma
[1] = 75 mg/kg, 3 h, dose level Middle
[2] = 75 mg/kg, 6 h, dose level Middle
[3] = 75 mg/kg, 9 h, dose level Middle
[4] = 75 mg/kg, 24 h, dose level Middle
[5] = 250 mg/kg, 3 h, dose level High
[6] = 250 mg/kg, 6 h, dose level High
[7] = 250 mg/kg, 9 h, dose level High
[8] = 250 mg/kg, 24 h, dose level High

## CN1C(=O)CN=C(c2ccccc2)c2cc(Cl)ccc21 [DIAZEPAM]
[1]
  TERMINAL_BW: 217.1 g
  APTT: 15.6 s
  Bas: 0%
  Eos: 1.2%
  Fbg: 212.4 mg/dL
  Hb: 13.8 g/dL
  Ht: 41.7%
  Lym: 77.2%
  MCH: 22.1 pg
  MCHC: 33.1%
  MCV: 66.8 fL
  Mono: 6.2%
  Neu: 15.6%
  PT: 12.7 s
  Plat: 103.8 x10_4/uL
  RBC: 624.4 x10_4/ul
  Ret: 8.2%
  WBC: 74.8 x10_2/uL
  KIDNEY_L: 1 g
  KIDNEY_R: 1 g
  KIDNEY_TOTAL: 2 g
  LIVER: 10.1 g
  ALP: 916 IU/L
  ALT: 31.2 IU/L
  AST: 62.6 IU/L
  BUN: 12 mg/dL
  CRE: 0.5 mg/dL
  DBIL: 0.028 mg/dL
  GLC: 187.6 mg/dL
  K: 5.1 meq/L
  Na: 139.6 meq/L
  PL: 133 mg/dL
  RALB: 3.9 g/dL
  TBIL: 0.4 mg/dL
  TC: 73 mg/dL
  TG: 46.8 mg/dL
  TP: 5.5 g/dL
  gamma-GTP: 1.6 IU/L
[2]
  TERMINAL_BW: 213.3 g
  APTT: 16.5 s
  Bas: 0%
  Eos: 0.8%
  Fbg: 222.8 mg/dL
  Hb: 13.8 g/dL
  Ht: 41.9%
  Lym: 79.2%
  MCH: 22.3 pg
  MCHC: 33.1%
  MCV: 67.3 fL
  Mono: 7.2%
  Neu: 13.2%
  PT: 12.1 s
  Plat: 105.5 x10_4/uL
  RBC: 621.2 x10_4/ul
  Ret: 8.1%
  WBC: 115.9 x10_2/uL
  KIDNEY_L: 1 g
  KIDNEY_R: 1 g
  KIDNEY_TOTAL: 2 g
  LIVER: 10.3 g
  ALP: 899 IU/L
  ALT: 30.4 IU/L
  AST: 59 IU/L
  BUN: 13 mg/dL
  CRE: 0.5 mg/dL
  DBIL: 0.02 mg/dL
  GLC: 198.2 mg/dL
  K: 5.5 meq/L
  Na: 139.6 meq/L
  PL: 147.8 mg/dL
  RALB: 3.8 g/dL
  TBIL: 0.4 mg/dL
  TC: 77.4 mg/dL
  TG: 78.2 mg/dL
  TP: 5.8 g/dL
  gamma-GTP: 1.6 IU/L
[3]
  TERMINAL_BW: 215.6 g
  APTT: 16.4 s
  Bas: 0%
  Eos: 0.8%
  Fbg: 213.8 mg/dL
  Hb: 13.9 g/dL
  Ht: 41.8%
  Lym: 80.2%
  MCH: 21.1 pg
  MCHC: 33.1%
  MCV: 63.8 fL
  Mono: 5.4%
  Neu: 13.8%
  PT: 12.4 s
  Plat: 101.8 x10_4/uL
  RBC: 655.6 x10_4/ul
  Ret: 8.2%
  WBC: 90.1 x10_2/uL
  KIDNEY_L: 1 g
  KIDNEY_R: 1 g
  KIDNEY_TOTAL: 1.9 g
  LIVER: 9.7 g
  ALP: 771 IU/L
  ALT: 33 IU/L
  AST: 62.8 IU/L
  BUN: 14.2 mg/dL
  CRE: 0.6 mg/dL
  DBIL: 0.048 mg/dL
  GLC: 208 mg/dL
  K: 4.5 meq/L
  Na: 140 meq/L
  PL: 143.8 mg/dL
  RALB: 3.8 g/dL
  TBIL: 0.4 mg/dL
  TC: 71 mg/dL
  TG: 80.6 mg/dL
  TP: 5.7 g/dL
  gamma-GTP: 1.4 IU/L
[4]
  TERMINAL_BW: 230.6 g
  APTT: 16.2 s
  Bas: 0%
  Eos: 0.8%
  Fbg: 208.2 mg/dL
  Hb: 13.6 g/dL
  Ht: 40.9%
  Lym: 79.4%
  MCH: 21.6 pg
  MCHC: 33.2%
  MCV: 65.1 fL
  Mono: 5.6%
  Neu: 14%
  PT: 12.3 s
  Plat: 103.8 x10_4/uL
  RBC: 628.4 x10_4/ul
  Ret: 8%
  WBC: 115 x10_2/uL
  KIDNEY_L: 1 g
  KIDNEY_R: 1.1 g
  KIDNEY_TOTAL: 2.1 g
  LIVER: 11.2 g
  ALP: 921 IU/L
  ALT: 37.2 IU/L
  AST: 64 IU/L
  BUN: 17.8 mg/dL
  CRE: 0.6 mg/dL
  DBIL: 0.012 mg/dL
  GLC: 199 mg/dL
  K: 5.1 meq/L
  Na: 139.4 meq/L
  PL: 141.6 mg/dL
  RALB: 4 g/dL
  TBIL: 0.4 mg/dL
  TC: 75.6 mg/dL
  TG: 97.4 mg/dL
  TP: 5.8 g/dL
  gamma-GTP: 1.2 IU/L
[5]
  TERMINAL_BW: 215.9 g
  APTT: 16.1 s
  Bas: 0%
  Eos: 1%
  Fbg: 213.4 mg/dL
  Hb: 13.6 g/dL
  Ht: 41%
  Lym: 75.8%
  MCH: 22.1 pg
  MCHC: 33.1%
  MCV: 66.7 fL
  Mono: 5.6%
  Neu: 17.6%
  PT: 12.7 s
  Plat: 109.5 x10_4/uL
  RBC: 615 x10_4/ul
  Ret: 8.8%
  WBC: 72.4 x10_2/uL
  KIDNEY_L: 1 g
  KIDNEY_R: 1 g
  KIDNEY_TOTAL: 2 g
  LIVER: 10.3 g
  ALP: 734 IU/L
  ALT: 34.2 IU/L
  AST: 67.4 IU/L
  BUN: 12.2 mg/dL
  CRE: 0.5 mg/dL
  DBIL: 0.028 mg/dL
  GLC: 196.2 mg/dL
  K: 4.7 meq/L
  Na: 140 meq/L
  PL: 144.4 mg/dL
  RALB: 3.7 g/dL
  TBIL: 0.4 mg/dL
  TC: 79.4 mg/dL
  TG: 64.2 mg/dL
  TP: 5.7 g/dL
  gamma-GTP: 1.4 IU/L
[6]
  TERMINAL_BW: 216.7 g
  APTT: 16.1 s
  Bas: 0%
  Eos: 0.8%
  Fbg: 240.4 mg/dL
  Hb: 14.3 g/dL
  Ht: 43.4%
  Lym: 77.2%
  MCH: 21.7 pg
  MCHC: 32.9%
  MCV: 65.9 fL
  Mono: 6.4%
  Neu: 16%
  PT: 12.3 s
  Plat: 120.4 x10_4/uL
  RBC: 659.8 x10_4/ul
  Ret: 8.4%
  WBC: 85.8 x10_2/uL
  KIDNEY_L: 1 g
  KIDNEY_R: 1 g
  KIDNEY_TOTAL: 2 g
  LIVER: 10.3 g
  ALP: 823.6 IU/L
  ALT: 27.8 IU/L
  AST: 68 IU/L
  BUN: 15.8 mg/dL
  CRE: 0.6 mg/dL
  DBIL: 0.008 mg/dL
  GLC: 210.6 mg/dL
  K: 5.6 meq/L
  Na: 141.6 meq/L
  PL: 161 mg/dL
  RALB: 4.1 g/dL
  TBIL: 0.5 mg/dL
  TC: 85.6 mg/dL
  TG: 74.4 mg/dL
  TP: 6.2 g/dL
  gamma-GTP: 1.8 IU/L
[7]
  TERMINAL_BW: 217 g
  APTT: 16.2 s
  Bas: 0%
  Eos: 1%
  Fbg: 240.5 mg/dL
  Hb: 14.2 g/dL
  Ht: 43%
  Lym: 80.5%
  MCH: 21.8 pg
  MCHC: 33%
  MCV: 66 fL
  Mono: 6.2%
  Neu: 12%
  PT: 12.2 s
  Plat: 118.3 x10_4/uL
  RBC: 652.2 x10_4/ul
  Ret: 8.2%
  WBC: 104.3 x10_2/uL
  KIDNEY_L: 1 g
  KIDNEY_R: 1 g
  KIDNEY_TOTAL: 2 g
  LIVER: 10 g
  ALP: 725 IU/L
  ALT: 25.8 IU/L
  AST: 67 IU/L
  BUN: 16.5 mg/dL
  CRE: 0.6 mg/dL
  DBIL: 0.0325 mg/dL
  GLC: 214.8 mg/dL
  K: 4.8 meq/L
  Na: 141.8 meq/L
  PL: 147.5 mg/dL
  RALB: 3.8 g/dL
  TBIL: 0.4 mg/dL
  TC: 84.5 mg/dL
  TG: 70.8 mg/dL
  TP: 5.8 g/dL
  gamma-GTP: 1.2 IU/L
[8]
  TERMINAL_BW: 235.1 g
  APTT: 15.6 s
  Bas: 0%
  Eos: 0.8%
  Fbg: 211 mg/dL
  Hb: 13.5 g/dL
  Ht: 40.5%
  Lym: 75%
  MCH: 21.9 pg
  MCHC: 33.4%
  MCV: 65.4 fL
  Mono: 7.6%
  Neu: 16.6%
  PT: 12.2 s
  Plat: 103.7 x10_4/uL
  RBC: 620.4 x10_4/ul
  Ret: 8.3%
  WBC: 133.5 x10_2/uL
  KIDNEY_L: 1.1 g
  KIDNEY_R: 1.1 g
  KIDNEY_TOTAL: 2.2 g
  LIVER: 12 g
  ALP: 1023.4 IU/L
  ALT: 37 IU/L
  AST: 57.4 IU/L
  BUN: 14.4 mg/dL
  CRE: 0.5 mg/dL
  DBIL: 0.006 mg/dL
  GLC: 201.6 mg/dL
  K: 5.1 meq/L
  Na: 140 meq/L
  PL: 167.4 mg/dL
  RALB: 4 g/dL
  TBIL: 0.4 mg/dL
  TC: 91.6 mg/dL
  TG: 105.8 mg/dL
  TP: 5.9 g/dL
  gamma-GTP: 1.4 IU/L
